# Patent US8664245B2, “Fumarate salts of a histamine H3 receptor antagonist” (Sanofi, priority 2009, dated 2014)
# Tests used:
# Type in all cases: physicochemical
# [1] = Dynamic Vapor Sorption (DVS) water sorption profile
# Description: The water sorption profile of a compound of the invention is determined using a SMS Instruments Dynamic Vapor Sorption Analyzer (DVS) Model DVS-Advantage. Relative humidity (RH) and weight are calibrated using standards. The powder of the relevant compound of the invention is loaded and dried at 0% RH for 3 hours prior to starting the experiment. The RH is stepped from 0.1 to 94.4% in 11 steps. The specimen weight is considered constant at each step when percent mass change is less than 0.01% over a 5-minute interval with a minimum absolute equilibration time of 15 minutes and maximum equilibration time of 180 minutes.
# [2] = Stability testing: storage at 60° C. and ambient RH for two weeks; settings: solid, ambient RH, 14 days
# Description: Stability Testing 1. Storage at 60° C. and Ambient RH for Two Weeks.
# Approximately 400 mg of the difumarate monohydrate salt was weighed into a scintillation vial and placed into an oven set to 60° C. The sample was tested for appearance, then diluted with ethanol to approximately 1 mg/mL and analyzed for related substances and optical enantiomer by HPLC.
# [3] = Stability testing: storage at 60° C./80% RH for two weeks; settings: solid, 14 days
# Description: 2. Storage at 60° C./80% RH and Ambient RH for Two Weeks.
# A glass desiccation chamber was pre-equilibrated overnight with a saturated KBr solution to 79.3% RH within an […] oven. Approximately 400 mg of the difumarate monohydrate was weighed into a scintillation vial and placed into the chamber, which was then sealed to maintain the environment. Samples were tested for appearance, then diluted with ethanol to approximately 1 mg/mL and analyzed for related substances and optical enantiomer by HPLC.
# [4] = Stability testing: storage at 80° C./80% RH for 4 days; settings: solid
# Description: 3. Storage at 80° C./80% RH for 4 Days
# A glass desiccation chamber was pre-equilibrated overnight with a saturated KBr solution to 79.3% RH within an 80° C. oven. Approximately 100 mg of the difumarate monohydrate salt was weighed into respective scintillation vials and these vials were placed into the chamber, which was then sealed to maintain the environment. The sample was tested on day 4 for appearance, then diluted with ethanol to approximately 1 mg/mL and analyzed by HPLC versus a control (time 0) sample.
compound,measurement,setting,value
"CN1CCC[C@H]1CCNS(=O)(=O)c1ccc2c(c1)CN(CC1CCCCC1)CC2.O=C(O)/C=C/C(=O)O [difumarate monohydrate salt, 2-(cyclohexylmethyl)-N-{2-[(2S)-1-methylpyrrolidin-2-yl]ethyl}-1,2,3,4-tetrahydroisoquinoline-7-sulfonamide difumarate monohydrate]","Change in Mass (%) - dry, Desorption","[1]; 0.6 % RH, 25° C.",0.0%
same,"Change in Mass (%) - dry, Sorption","[1]; 0.6 % RH, 25° C.",0.0%
same,"Change in Mass (%) - dry, Desorption","[1]; 10.2 % RH, 25° C.",2.9%
same,"Change in Mass (%) - dry, Sorption","[1]; 10.2 % RH, 25° C.",2.8%
same,"Change in Mass (%) - dry, Desorption","[1]; 19.6 % RH, 25° C.",2.9%
same,"Change in Mass (%) - dry, Sorption","[1]; 19.6 % RH, 25° C.",2.9%
same,"Change in Mass (%) - dry, Desorption","[1]; 29.4 % RH, 25° C.",3.0%
same,"Change in Mass (%) - dry, Sorption","[1]; 29.4 % RH, 25° C.",3.0%
same,"Change in Mass (%) - dry, Desorption","[1]; 38.5 % RH, 25° C.",3.0%
same,"Change in Mass (%) - dry, Sorption","[1]; 38.5 % RH, 25° C.",3.0%
same,"Change in Mass (%) - dry, Desorption","[1]; 48.5 % RH, 25° C.",3.0%
same,"Change in Mass (%) - dry, Sorption","[1]; 48.5 % RH, 25° C.",3.0%
same,"Change in Mass (%) - dry, Desorption","[1]; 57.5 % RH, 25° C.",3.1%
same,"Change in Mass (%) - dry, Sorption","[1]; 57.5 % RH, 25° C.",3.1%
same,"Change in Mass (%) - dry, Desorption","[1]; 67.1 % RH, 25° C.",3.1%
same,"Change in Mass (%) - dry, Sorption","[1]; 67.1 % RH, 25° C.",3.1%
same,"Change in Mass (%) - dry, Desorption","[1]; 77.0 % RH, 25° C.",3.2%
same,"Change in Mass (%) - dry, Sorption","[1]; 77.0 % RH, 25° C.",3.1%
same,"Change in Mass (%) - dry, Desorption","[1]; 87.0 % RH, 25° C.",3.2%
same,"Change in Mass (%) - dry, Sorption","[1]; 87.0 % RH, 25° C.",3.2%
same,"Change in Mass (%) - dry, Desorption","[1]; 94.2 % RH, 25° C.",3.3%
same,"Change in Mass (%) - dry, Sorption","[1]; 94.2 % RH, 25° C.",3.3%
same,"chemical stability (related substances and optical enantiomer by HPLC, appearance)",[2],stable in the solid state with a minimal increase in impurity levels and no observable change in appearance
same,physical stability (physical form by XRPD and DSC-TGA),[2],no observable change in physical form
same,"chemical stability (related substances and optical enantiomer by HPLC, appearance)",[3],stable in the solid state with a minimal increase in impurity levels and no observable change in appearance
same,physical stability (physical form by XRPD and DSC-TGA),[3],no observable change in physical form
same,"chemical stability (HPLC versus time 0 control, appearance)",[4],stable in the solid state with no observable chemical change
"CN1CCC[C@H]1CCNS(=O)(=O)c1ccc2c(c1)CN(CC1CCCCC1)CC2.O=C(O)/C=C/C(=O)O [hemifumarate dihydrate, 2-(cyclohexylmethyl)-N-{2-[(2S)-1-methylpyrrolidin-2-yl]ethyl}-1,2,3,4-tetrahydroisoquinoline-7-sulfonamide hemifumarate dihydrate]","Change in Mass (%) - dry, Desorption","[1]; 0.6 % RH, 25° C. (Table 8)",0.00%
same,"Change in Mass (%) - dry, Sorption","[1]; 0.6 % RH, 25° C. (Table 8)",0.00%
same,"Change in Mass (%) - dry, Desorption","[1]; 10.1 % RH, 25° C.",0.56%
same,"Change in Mass (%) - dry, Sorption","[1]; 10.1 % RH, 25° C.",0.25%
same,"Change in Mass (%) - dry, Desorption","[1]; 19.4 % RH, 25° C.",6.71%
same,"Change in Mass (%) - dry, Sorption","[1]; 19.4 % RH, 25° C.",3.53%
same,"Change in Mass (%) - dry, Desorption","[1]; 29.0 % RH, 25° C.",6.85%
same,"Change in Mass (%) - dry, Sorption","[1]; 29.0 % RH, 25° C.",3.87%
same,"Change in Mass (%) - dry, Desorption","[1]; 37.8 % RH, 25° C.",6.89%
same,"Change in Mass (%) - dry, Sorption","[1]; 37.8 % RH, 25° C.",6.50%
same,"Change in Mass (%) - dry, Desorption","[1]; 47.7 % RH, 25° C.",6.97%
same,"Change in Mass (%) - dry, Sorption","[1]; 47.7 % RH, 25° C.",6.89%
same,"Change in Mass (%) - dry, Desorption","[1]; 56.4 % RH, 25° C.",7.10%
same,"Change in Mass (%) - dry, Sorption","[1]; 56.4 % RH, 25° C.",7.01%
same,"Change in Mass (%) - dry, Desorption","[1]; 65.7 % RH, 25° C.",7.21%
same,"Change in Mass (%) - dry, Sorption","[1]; 65.7 % RH, 25° C.",7.13%
same,"Change in Mass (%) - dry, Desorption","[1]; 75.3 % RH, 25° C.",7.33%
same,"Change in Mass (%) - dry, Sorption","[1]; 75.3 % RH, 25° C.",7.32%
same,"Change in Mass (%) - dry, Desorption","[1]; 84.8 % RH, 25° C.",7.66%
same,"Change in Mass (%) - dry, Sorption","[1]; 84.8 % RH, 25° C.",7.68%
same,"Change in Mass (%) - dry, Desorption","[1]; 92.0 % RH, 25° C.",8.25%
same,"Change in Mass (%) - dry, Sorption","[1]; 92.0 % RH, 25° C.",8.31%
